Test results from patent US20220218851A1, “COMPOUNDS AND METHODS FOR IMAGING IMMUNE ACTIVITY” (Board of Regents, The University of Texas System, priority 2019, published 2022).
“Also recorded” adds a separate entry of the source. Where a name gives a salt, the structure may show the parent alone. One block for each compound: values may come before it.

Key:
[1] = system: PMA-induced ear inflammation; test: PMA ear inflammation model, PET/CT imaging; type: in vivo, mouse; settings: for detection of PMA-inflamed ear versus vehicle ear by PET: about 1 hr post tracer injection ([^18F]FDG from 45 min)
Experimental: 3 Months old Balb/c female mice or 20-26 week-old female C57B16 mice (Taconic) were topically treated with PMA (Sigma) (400 μM) in ethanol on the right ear or vehicle, ethanol, on the left ear. 24 hrs later, inflammation of the right ear was validated by visual inspection for redness and swelling. Mice were then injected IV (unless noted) with [^18F]FN or [^18F]FNS or [^18F]FNG derivatives as noted and PET/CT images were acquired at times indicated, typically 1 hr post injection. Mice, n=3 for [^18F]FN and [^18F]FNS, were euthanized at 1.5 hr post injection for blood metabolism analysis. In one experiment, adult (3 month old Balb/c) were imaged on an in vivo imaging system (IVIS Spectrum, PE; 5 min, binning 16, 25 cm FOV) 10 min post injection of Luminol (200 mg/kg) IP to confirm production of reactive oxygen species. For [^18F]FDG PET imaging experiments, mice were fasted for >4 hr prior to FDG injection. Mice were injected with [^18F]FDG IV under light anesthesia and then allowed to awake, move and drink water at libitum. Cages were kept on a cage warmer during uptake and washout periods. Mice were imaged starting at 45 min post-injection with a 10 min PET/CT scan (Albira, Bruker). In all cases, PET images were acquired for 10 min using a 15 cm FOV; CT images were acquired for fusion using a 7 cm FOV also centered on the object of interest. Image data were decay corrected to injection time (Albira, Bruker) and expressed as % ID/cc or SUV as indicated (PMOD, PMOD Technologies). Actual injected dose was calculated based on measuring the pre- and post-injection activity in the syringe with a dose calibrator on a per mouse basis (Capintec), and mice were individually weighed to calculate individual standardized uptake values. In the context of an acute inflammation model, [^18F]4FN was tested in a pilot experiment in Balb/c mice topically treated with PMA on the right ear or vehicle on the left ear. The treated ear turned red, visually confirming the inflammation site. Mice were injected IP with [^18F]4FN and PET/CT scans were taken at 11 min, 1 h, 2 h and 3 h post injection of tracer (FIG. 5). […] After 1 h, the inflamed ear was clearly visualized (>2% ID/cc). […] Production of reactive oxygen species in the inflamed ear was confirmed by BLI with luminol after PET imaging (FIG. 5) (Gross et al., 2009). This indicated the dependence of the signal on induced inflammation.

LPS-induced arthritis = test: LPS-induced model of arthritis, PET imaging and L-012 BLI; type: in vivo, mouse
Experimental: Herein, C57BL6/N mice were injected i.a. with LPS, left ankle, or vehicle, right ankle. After 24 hours, mild inflammation of the left ankle was confirmed by visual inspection. 1 hour dynamic PET scans were acquired post i.v. injection of [^18F]4FN. Mice were subsequently imaged for ROS by BLI (L-012). A) 1 hour static [^18F]4FN PET image (left) and BLI (right). B) PET image-derived time-activity curves (TACs) were quantified for the ankles (left, n=4). […] C) H&E staining cross-validated local inflammation (vehicle, left panel; LPS, right panel), utilizing the same mouse as imaged in A. D) Image-based biodistribution was calculated from the dynamic PET/CT data and SUV plotted for various organs over time.
[^18F]4FN PET was employed to image a model of inflammatory arthritis and validate its correlation with L012, a known ROS/RNS bioluminescence sensor.

[2] = Shelf-stability of the formulated radiotracer in PBS (10% EtOH); type: physicochemical
Experimental: (§1) [^18F]4FN was synthesized on the automated module GE TracerLab-FX from precursor 1 in 6.8±2.5% (n=22) activity yield, by means of a copper-mediated radiofluorination of the corresponding Boc-protected pinacol boronic ester, followed by deprotection, purification and reformulation (Scheme 2; Tredwell et al., 2014). [^18F]4FN was obtained in >99% radiochemical purity, 50-140 GBq/μmol and up to 4 h shelf-stability in PBS (10% EtOH). [^18F]4FN was also stable in mouse plasma for at least 1 h.

[3] = system: neutrophil-like human HL-60 cells; test: [^18F]4FN cellular retention in PMA-activated neutrophil-like HL-60 cells; type: cell-based
Experimental: HL-60 cells were first differentiated to yield “neutrophil-like” cells. Then, in parallel, cell aliquots from each batch were imaged with L-012 (to confirm ROS production by bioluminescence) and incubated with 6.2 kBq of [^18F]4FN. To induce ROS, all cells were incubated with PMA. […] Data were quantified as a ratio of the cell-associated radioactive counts per milligram protein over concentration of radiotracer in the extracellular space, and then normalized to vehicle.

[4] = Stability in mouse plasma; type: in vitro ADME
Experimental: as §1

[5] = In vivo mouse blood and urine metabolism by radio-HPLC
Experimental: 3 Months old Balb/c female mice or 20-26 week-old female C57B16 mice (Taconic) were topically treated with PMA (Sigma) (400 μM) in ethanol on the right ear or vehicle, ethanol, on the left ear. 24 hrs later, inflammation of the right ear was validated by visual inspection for redness and swelling. Mice were then injected IV (unless noted) with [^18F]FN or [^18F]FNS or [^18F]FNG derivatives as noted and PET/CT images were acquired at times indicated, typically 1 hr post injection. Mice, n=3 for [^18F]FN and [^18F]FNS, were euthanized at 1.5 hr post injection for blood metabolism analysis. In one experiment, adult (3 month old Balb/c) were imaged on an in vivo imaging system (IVIS Spectrum, PE; 5 min, binning 16, 25 cm FOV) 10 min post injection of Luminol (200 mg/kg) IP to confirm production of reactive oxygen species. For [^18F]FDG PET imaging experiments, mice were fasted for >4 hr prior to FDG injection. Mice were injected with [^18F]FDG IV under light anesthesia and then allowed to awake, move and drink water at libitum. Cages were kept on a cage warmer during uptake and washout periods. Mice were imaged starting at 45 min post-injection with a 10 min PET/CT scan (Albira, Bruker).
In vivo mouse blood metabolism was also performed. Blood was drawn from inflamed, non-inflamed and MPO knock-out mice at 5 min and 1.5 h post injection, processed and analyzed by analytical radio-HPLC. […] While 4-fluoronaphthol metabolism has not been studied, naphthol metabolism is well documented in the literature: the molecule is reported to be quickly transformed into glucuronic and sulfuric esters, and this pathway is conserved from flies to man (Narukawa et al., 2004 and Terriere et al., 1961). […] To test this hypothesis, [^18F]4FN was transformed enzymatically with glucuronosyltransferase and sulfonyl transferase into the corresponding glucuronide and sulfate derivatives (Scheme 3), respectively, and the products analyzed by radio-HPLC.

Nox2 = test: PMA ear inflammation model in Nox2 KO mice, PET/CT imaging; type: in vivo, mouse; settings: Nox2 KO mice (gp91phox-/-), IP, one-hour post administration
Experimental: Balb/c mice were treated with either PMA or vehicle and imaged 24 hr post treatment by PET/CT scan at 1 hr post-injection (IP) of [^18F]4FN (FIG. 1A); photograph 3 hr post [^18F]4FN (FIG. 1i). BLI 10 min post luminol injection (FIG. 1C). Aged-matched, 15-week-old female wild-type […] or Nox2 KO mice (n=3 each) were treated with PMA or vehicle and imaged with [^18F]4FN one-hour post IP administration of radiotracer. PET/CT data were quantified using ROIs surrounding the right and left ears. Contrast-to-noise ratios were calculated for all mice and data were plotted as mean and SEM. […] Radioactive HPLC trace and chemical structure of [^18F]4FN (FIG. 1E).
3 Months old Balb/c female mice or 20-26 week-old female C57B16 mice (Taconic) were topically treated with PMA (Sigma) (400 μM) in ethanol on the right ear or vehicle, ethanol, on the left ear. 24 hrs later, inflammation of the right ear was validated by visual inspection for redness and swelling. Mice were then injected IV (unless noted) with [^18F]FN or [^18F]FNS or [^18F]FNG derivatives as noted and PET/CT images were acquired at times indicated, typically 1 hr post injection. Mice, n=3 for [^18F]FN and [^18F]FNS, were euthanized at 1.5 hr post injection for blood metabolism analysis. […]

4T1 tumor = 4T1 tumor PET imaging; type: in vivo, mouse; settings: immunocompetent Balb/C mice, 1 h after injection
Experimental: 4T1 murine breast cancer cells were cultured and passaged per ATCC guidelines and utilized prior to 20 passages. 10,000 4T1 cells were injected subcutaneously into the right flank of 6-8 week old Balb/c mice. Tumors grew for 3 weeks prior to imaging. In all cases, PET images were acquired for 10 min using a 15 cm FOV; CT images were acquired for fusion using a 7 cm FOV also centered on the object of interest. Image data were decay corrected to injection time (Albira, Bruker) and expressed as % ID/cc or SUV as indicated (PMOD, PMOD Technologies). Actual injected dose was calculated based on measuring the pre- and post-injection activity in the syringe with a dose calibrator on a per mouse basis (Capintec), and mice were individually weighed to calculate individual standardized uptake values. [^18F]4FNS PET has been employed to visualize 4T1 tumors in immunocompetent Balb/C mice. 4T1 is a reliable murine model for triple negative breast cancer and, in its early proliferative stage, is believed to be heavily infiltrated by immune cells, particularly active neutrophils and myeloid derived suppressor cells (MDSCs; Wang et al., 2017 and Bunt et al., 2006).

Structure (SMILES): O=C(O)C1OC(Oc2ccc([18F])c3ccccc23)C(O)C(O)C1O (centres unmarked) [[^18F]4FNG, [^18F]4-fluoronaphthalen-1-yl glucuronide]
detection of PMA-inflamed ear versus vehicle ear by PET ([1]; IV injection): small differentiation | clearance relative to other tracers ([1]; PMA model): cleared much faster | retention in PMA-inflamed ear relative to other tracers ([1]; PMA model, 1 h post injection): retained much less than [^18F]FN and [^18F]FNS

Structure (SMILES): O=C([O-])CC(O)(CC(=O)[O-])C(=O)[O-].[68Ga+3] [^68Ga-citrate, reference compound]
difference between inflamed and vehicle ears (perfusion control) ([1]; same animals, same time points): No difference between the ears

Structure (SMILES): OC[C@H]1OC(O)[C@H]([18F])[C@@H](O)[C@@H]1O (some centres unmarked) [[^18F]FDG, reference compound]
detection of PMA-inflamed ear versus vehicle ear by PET ([1]; IV injection): no differentiation between the ears; also recorded: no FDG image asymmetry was observed

Structure (SMILES): c1ccc2c(c1)[I+]c1ccccc1-2 [DPI, reference compound]
blocking of PMA-induced [^18F]4FN retention ([3]; pre-incubation with inhibitor prior to PMA): blocked

Second part, led by results:

shelf-stability [2]: up to 4 h | clearance of the tracer ([1]; Balb/c mice, IP injection): renal dominant | hepatobiliary excretion ([1]; Balb/c mice, IP injection): partial hepatobiliary excretion | radioactivity in the liver ([1]; Balb/c mice, IP injection): low | stable in mouse plasma [4]: at least 1 h | blood metabolites ([5]; 5 min after injection): Metabolites are also present | blood metabolites ([5]; inflamed mice, 1.5 h post injection): more polar metabolites were observed | blood radio-HPLC, parent compound ([5]; non-inflamed and MPO knock-out mice, 1.5 h post injection): the parent compound could still be seen
Structure (SMILES): Oc1ccc([18F])c2ccccc12 [[^18F]4FN, 4-[^18F]fluoro-1-naphthol]
correlation of PET accumulation in inflamed ankles with L012 bioluminescence (LPS-induced arthritis; 1 hr, per animal basis): correlated strongly with L012; also recorded: directly correlated | imaging of inflammatory ROS burst by PET (LPS-induced arthritis; C57BL6/N mice, LPS i.a. left ankle, i.v. tracer): readily image the inflammatory ROS burst | crossing of blood-brain barrier (radioactivity in the intracranial region) ([1]; Balb/c mice, IP injection): may not cross an intact blood-brain barrier | differentiation in uptake between inflamed right ear and vehicle treated left ear ([1]; Balb/c mice, IP injection, 11 min post-injection): no differentiation in uptake | uptake in inflamed ear ([1]; Balb/c mice, IP injection, 1 h post injection): > 2 % ID/cc | uptake-ratio between right-inflamed ear and left-control ear ([1]; IP injection, 11 min to 3 h post injection): increased over time | Cohen's d effect size, inflamed versus non-inflamed sites ([1]; IP or IV delivery, n=5): large Cohen's d effect sizes | contrast ratios inflamed versus non-inflamed ([1]; IP or IV delivery, n=5): strong contrast ratios | difference in SUV between inflamed and vehicle-treated ears ([1]; IP or IV delivery, n=5): statistically detectable differences in SUV; also recorded: statistically detectable differences in SUVaverage values | detection of PMA-inflamed ear versus vehicle ear by PET ([1]; IV injection): clearly visible | detection of PMA-inflamed ear versus vehicle ear by PET ([1]; IV injection, listed as [^18F]FN): readily detectable | [^18F]4FN retention in activated cells vs vehicle (ratio) ([3]; PMA-activated differentiated HL-60 cells, normalized to vehicle): > 1 | difference between inflamed and non-inflamed ear in Nox2 KO mice versus WT (Nox2): substantially smaller compared to WT inflamed mice; also recorded: decreased contrast between PMA-treated and untreated ears

clearance ([1]; IV injection, n=3): Rapid primarily renal clearance | defluorination (bone) ([1]; IV injection, n=3): minor defluorination | hepatobiliary excretion ([1]; IV injection, n=3): minor hepatobiliary excretion
Structure (SMILES): O=S(=O)(O)Oc1ccc([18F])c2ccccc12 [[^18F]4FNS, [^18F]4-fluoronaphthalen-1-yl sulfate]
detection of PMA-inflamed ear versus vehicle ear by PET ([1]; IV injection): readily detected; also recorded: clearly visible; also recorded: readily detectable | visualization of 4T1 tumor by PET (4T1 tumor): clearly visible; also recorded: easily distinguishable
